According to ChEMBL document CHEMBL1782000, “Thiazole-based chalcones as potent antimicrobial agents. Synthesis and biological evaluation” (2011):

Tests used:
Staphylococcus aureus [1] = assay: Antibacterial activity against Staphylococcus aureus ATCC 6538 after 24 hrs by microdilution method; format: functional; details: ATCC 6538, 24 h
Bacillus cereus [2] = assay: Antibacterial activity against Bacillus cereus clinical isolate after 24 hrs by microdilution method; format: functional
Micrococcus flavus [3] = assay: Antibacterial activity against Micrococcus flavus ATCC 10240 after 24 hrs by microdilution method; format: functional; details: ATCC 10240, 24 h
Listeria monocytogenes [4] = assay: Antibacterial activity against Listeria monocytogenes NCTC 7973 after 24 hrs by microdilution method; format: functional; details: NCTC 7973, 24 h
Pseudomonas aeruginosa [5] = assay: Antibacterial activity against Pseudomonas aeruginosa ATCC 27853 after 24 hrs by microdilution method; format: functional; details: ATCC 27853, 24 h
Salmonella typhimurium [6] = assay: Antibacterial activity against Salmonella Typhimurium ATCC 13311 after 24 hrs by microdilution method; format: functional, Salmonella enterica subsp. enterica serovar Typhimurium; details: Salmonella enterica, ATCC 13311, 24 h
Escherichia coli [7] = assay: Antibacterial activity against Escherichia coli ATCC 35210 after 24 hrs by microdilution method; format: functional; details: ATCC 35210, 24 h
Enterococcus faecalis [8] = assay: Antibacterial activity against Enterococcus faecalis isolate obtained from human after 24 hrs by microdilution method; format: functional
Staphylococcus aureus [9] = assay: Bactericidal activity against Staphylococcus aureus ATCC 6538 after 24 hrs; format: functional; details: ATCC 6538, 24 h
Bacillus cereus [10] = assay: Bactericidal activity against Bacillus cereus clinical isolate after 24 hrs; format: functional
Micrococcus flavus [11] = assay: Bactericidal activity against Micrococcus flavus ATCC 10240 after 24 hrs; format: functional; details: ATCC 10240, 24 h
Listeria monocytogenes [12] = assay: Bactericidal activity against Listeria monocytogenes NCTC 7973 after 24 hrs; format: functional; details: NCTC 7973, 24 h
Pseudomonas aeruginosa [13] = assay: Bactericidal activity against Pseudomonas aeruginosa ATCC 27853 after 24 hrs; format: functional; details: ATCC 27853, 24 h
Salmonella typhimurium [14] = assay: Bactericidal activity against Salmonella Typhimurium ATCC 13311 after 24 hrs; format: functional, Salmonella enterica subsp. enterica serovar Typhimurium; details: Salmonella enterica, ATCC 13311, 24 h
Escherichia coli [15] = assay: Bactericidal activity against Escherichia coli ATCC 35210 after 24 hrs; format: functional; details: ATCC 35210, 24 h
Enterococcus faecalis [16] = assay: Bactericidal activity against Enterococcus faecalis isolate obtained from human after 24 hrs; format: functional
Aspergillus ochraceus [17] = assay: Antifungal activity against Aspergillus ochraceus ATCC 12066 after 72 hrs by serial dilution method; format: functional; details: ATCC 12066, 72 h
Aspergillus versicolor [18] = assay: Antifungal activity against Aspergillus versicolor ATCC 11730 after 72 hrs by serial dilution method; format: functional; details: ATCC 11730, 72 h
Aspergillus niger [19] = assay: Antifungal activity against Aspergillus niger ATCC 6275 after 72 hrs by serial dilution method; format: functional; details: ATCC 6275, 72 h
Aspergillus fumigatus [20] = assay: Antifungal activity against Aspergillus fumigatus plant isolate after 72 hrs by serial dilution method; format: functional
Trichoderma viride [21] = assay: Antifungal activity against Trichoderma viride IAM 5061 after 72 hrs by serial dilution method; format: functional; details: IAM 5061, 72 h
Penicillium ochrochloron [22] = assay: Antifungal activity against Penicillium ochrochloron ATCC 9112 after 72 hrs by serial dilution method; format: functional; details: ATCC 9112, 72 h
Talaromyces funiculosus [23] = assay: Antifungal activity against Penicillium funiculosum ATCC 36839 after 72 hrs by serial dilution method; format: functional; details: ATCC 36839, 72 h
[24] = Antifungal activity against Fusarium sporotrichioides IMT 496 after 72 hrs by serial dilution method; format: functional
Aspergillus ochraceus [25] = assay: Fungicidal activity against Aspergillus ochraceus ATCC 12066 after 72 hrs; format: functional; details: ATCC 12066, 72 h
Aspergillus versicolor [26] = assay: Fungicidal activity against Aspergillus versicolor ATCC 11730 after 72 hrs; format: functional; details: ATCC 11730, 72 h
Aspergillus niger [27] = assay: Fungicidal activity against Aspergillus niger ATCC 6275 after 72 hrs; format: functional; details: ATCC 6275, 72 h
Aspergillus fumigatus [28] = assay: Fungicidal activity against Aspergillus fumigatus plant isolate after 72 hrs; format: functional
Trichoderma viride [29] = assay: Fungicidal activity against Trichoderma viride IAM 5061 after 72 hrs; format: functional; details: IAM 5061, 72 h
Penicillium ochrochloron [30] = assay: Fungicidal activity against Penicillium ochrochloron ATCC 9112 after 72 hrs; format: functional; details: ATCC 9112, 72 h
Talaromyces funiculosus [31] = assay: Fungicidal activity against Penicillium funiculosum ATCC 36839 after 72 hrs; format: functional; details: ATCC 36839, 72 h
[32] = test system: Fusarium sporotrichioides; assay: Fungicidal activity against Fusarium sporotrichioides IMT 496 after 72 hrs; format: functional; details: IMT 496, 72 h

CNc1nc(C)c(C(=O)/C=C/c2cccc([N+](=O)[O-])c2)s1
165 µM: MIC (Trichoderma viride [21])
660 µM: MFC (Aspergillus niger [27]) | MFC [32]
330 µM: MIC (Staphylococcus aureus [1]) | MIC (Bacillus cereus [2]) | MIC (Micrococcus flavus [3]) | MIC (Listeria monocytogenes [4]) | MIC (Enterococcus faecalis [8]) | MBC (Bacillus cereus [10]) | MBC (Pseudomonas aeruginosa [13]) | MBC (Salmonella typhimurium [14]) | MBC (Escherichia coli [15]) | MBC (Enterococcus faecalis [16]) | MIC (Aspergillus ochraceus [17]) | MIC (Aspergillus versicolor [18]) | MIC (Aspergillus niger [19]) | MIC (Aspergillus fumigatus [20]) | MIC (Penicillium ochrochloron [22]) | MIC (Talaromyces funiculosus [23]) | MFC (Trichoderma viride [29])
496 µM: MFC (Aspergillus ochraceus [25]) | MFC (Aspergillus versicolor [26]) | MFC (Aspergillus fumigatus [28]) | MFC (Penicillium ochrochloron [30]) | MFC (Talaromyces funiculosus [31])
33: MIC (10'-2 umol/ml) [24]
248 µM: MIC (Escherichia coli [7])
280 µM: MIC (Pseudomonas aeruginosa [5]) | MIC (Salmonella typhimurium [6])
495 µM: MBC (Staphylococcus aureus [9]) | MBC (Micrococcus flavus [11]) | MBC (Listeria monocytogenes [12])

CNc1nc(C)c(C(=O)/C=C/c2ccccc2)s1
291 µM: MIC (Pseudomonas aeruginosa [5])
388 µM: MIC (Staphylococcus aureus [1]) | MIC (Bacillus cereus [2]) | MIC (Listeria monocytogenes [4]) | MBC (Micrococcus flavus [11]) | MBC (Pseudomonas aeruginosa [13]) | MBC (Salmonella typhimurium [14]) | MBC (Escherichia coli [15]) | MBC (Enterococcus faecalis [16]) | MIC (Aspergillus ochraceus [17]) | MIC (Aspergillus niger [19]) | MIC (Aspergillus fumigatus [20]) | MIC (Talaromyces funiculosus [23]) | MFC (Trichoderma viride [29]) | MFC [32]
581 µM: MBC (Staphylococcus aureus [9]) | MBC (Bacillus cereus [10]) | MBC (Listeria monocytogenes [12]) | MFC (Aspergillus ochraceus [25]) | MFC (Aspergillus versicolor [26]) | MFC (Aspergillus fumigatus [28]) | MFC (Talaromyces funiculosus [31])
329 µM: MIC (Salmonella typhimurium [6]) | MIC (Escherichia coli [7])
775 µM: MFC (Aspergillus niger [27]) | MFC (Penicillium ochrochloron [30])
38.8: MIC (10'-2 umol/ml) [24]
194 µM: MIC (Micrococcus flavus [3]) | MIC (Enterococcus faecalis [8]) | MIC (Aspergillus versicolor [18]) | MIC (Trichoderma viride [21]) | MIC (Penicillium ochrochloron [22])

CNc1nc(C)c(C(=O)/C=C/c2ccccc2OC)s1
340 µM: MIC (Aspergillus versicolor [18]) | MIC (Aspergillus niger [19]) | MIC (Aspergillus fumigatus [20]) | MIC (Penicillium ochrochloron [22]) | MIC (Talaromyces funiculosus [23]) | MFC (Aspergillus ochraceus [25]) | MFC (Trichoderma viride [29]) | MFC [32]
520 µM: MFC (Aspergillus versicolor [26]) | MFC (Aspergillus fumigatus [28]) | MFC (Penicillium ochrochloron [30])
521 µM: MBC (Listeria monocytogenes [12]) | MBC (Salmonella typhimurium [14])
347 µM: MIC (Staphylococcus aureus [1]) | MIC (Bacillus cereus [2]) | MIC (Listeria monocytogenes [4]) | MIC (Salmonella typhimurium [6]) | MBC (Staphylococcus aureus [9]) | MBC (Bacillus cereus [10]) | MBC (Pseudomonas aeruginosa [13]) | MBC (Escherichia coli [15]) | MBC (Enterococcus faecalis [16])
295 µM: MIC (Pseudomonas aeruginosa [5]) | MBC (Micrococcus flavus [11])
17: MIC (10'-2 umol/ml) [24]
170 µM: MIC (Aspergillus ochraceus [17]) | MIC (Trichoderma viride [21])
870 µM: MFC (Aspergillus niger [27])
690 µM: MFC (Talaromyces funiculosus [31])
260 µM: MIC (Micrococcus flavus [3]) | MIC (Escherichia coli [7]) | MIC (Enterococcus faecalis [8])

CN[C@@H]1[C@H](O[C@H]2[C@H](O[C@H]3[C@H](O)[C@@H](O)[C@H](N=C(N)N)[C@@H](O)[C@@H]3N=C(N)N)O[C@@H](C)[C@]2(O)C=O)O[C@@H](CO)[C@H](O)[C@H]1O [STREPTOMYCIN]
8.6 µM: MIC (Escherichia coli [7]) | MBC (Enterococcus faecalis [16])
2 µM: MIC (Bacillus cereus [2]) | MIC (Micrococcus flavus [3]) | MIC (Pseudomonas aeruginosa [5]) | MIC (Salmonella typhimurium [6])
4.3 µM: MIC (Enterococcus faecalis [8]) | MBC (Bacillus cereus [10]) | MBC (Micrococcus flavus [11]) | MBC (Pseudomonas aeruginosa [13]) | MBC (Salmonella typhimurium [14])
17.1 µM: MIC (Staphylococcus aureus [1]) | MIC (Listeria monocytogenes [4]) | MBC (Escherichia coli [15])
42.9 µM: MBC (Staphylococcus aureus [9])
43 µM: MBC (Listeria monocytogenes [12])

c1ccc(-c2ccc(C(c3ccccc3)n3ccnc3)cc2)cc1 (centres undefined) [BIFONAZOLE]
3.2 µM: MIC (Aspergillus fumigatus [20])
50.3 µM: MIC (Aspergillus niger [19])
1610 µM: MIC (Talaromyces funiculosus [23]) | MFC (Aspergillus versicolor [26]) | MFC (Trichoderma viride [29]) | MFC (Penicillium ochrochloron [30])
201 µM: MFC (Aspergillus niger [27])
403 µM: MIC (Aspergillus ochraceus [17]) | MIC (Penicillium ochrochloron [22])
806 µM: MIC (Trichoderma viride [21]) | MFC (Aspergillus ochraceus [25]) | MFC [32]
25.1 µM: MIC (Aspergillus versicolor [18])
8.06: MIC (10'-2 umol/ml) [24]
61.2 µM: MFC (Aspergillus fumigatus [28])
2420 µM: MFC (Talaromyces funiculosus [31])

CC1(C)S[C@@H]2[C@H](NC(=O)[C@H](N)c3ccccc3)C(=O)N2[C@H]1C(=O)O [AMPICILLIN]
248 µM: MIC (Staphylococcus aureus [1]) | MIC (Bacillus cereus [2]) | MIC (Micrococcus flavus [3]) | MIC (Listeria monocytogenes [4]) | MIC (Pseudomonas aeruginosa [5]) | MIC (Salmonella typhimurium [6]) | MIC (Escherichia coli [7]) | MIC (Enterococcus faecalis [8])
372 µM: MBC (Staphylococcus aureus [9]) | MBC (Bacillus cereus [10]) | MBC (Micrococcus flavus [11]) | MBC (Listeria monocytogenes [12]) | MBC (Pseudomonas aeruginosa [13]) | MBC (Salmonella typhimurium [14]) | MBC (Escherichia coli [15]) | MBC (Enterococcus faecalis [16])
